Experimental data published in US11421280B2 (DENOVO BIOPHARMA LLC, priority 2016, dated 2022).
“Also recorded” adds a separate entry of the source.

Assays:
DLBCL patients [1] = assay: Prelude phase 3 DLBCL maintenance trial, survival analysis by chromaturia and rs309605 genotype; type: in vivo, human
Excerpt: Prelude trial is a multicenter, phase 3, randomized, double-blind, placebo-controlled trial enrolled patients at high risk of recurrence following rituximab-cyclophosphamide, doxorubicin, vincristine, and prednisone (R-CHOP). […] Primary endpoint was DFS 3 years after the last patient entered treatment (FIG. 1A).
Unlike most oncology biomarker studies focusing on mutations or target protein overexpression in tumor cells, germline genetic polymorphisms also contribute to the various responses to the same drug in different patients.
For both rs309605 and rs309604, allele A represents T and allele B represents C. […] A p-value smaller than 5×10^−8 is usually considered the threshold for genome-wide significance.
To examine whether rs309605 is merely a prognostic biomarker, DNA samples from 238 patients from placebo control group were genotyped at rs309605 using the Taqman SNP assays.

DLBCL patients [2] = assay: S028 phase 2 DLBCL 1st line trial, enzastaurin in combination with R-CHOP; type: in vivo, human
Experimental: Thus, subgroup analysis was conducted using both IPI and rs309605 and rs309604.

GBM patients = assay: S008 GBM phase 1/2 first line trial; type: in vivo, human
Excerpt: FIG. 4A is a Kaplan-Meier plot showing time to overall survival in the AA+AB group and BB group. FIG. 4B is a Kaplan-Meier plot showing time to overall survival in the chromaturia group and non-chromaturia group.
The DNA samples from blood of GBM patients in S008 trials were used to genotype rs309605 by Taqman assay.

[3] = system: other PKC isoforms (α, γ, ε); settings: Graff et al. 2005; read-out: IC50s other PKC isoforms (α, γ, ε); cited from earlier work
[4] = system: cultured cancer cells (colon, NSCLC, glioblastoma, diffuse large B-cell and cutaneous T-cell lymphoma, multiple myeloma, Waldenstrom's macroglobulinemia); settings: cited from earlier work
[5] = system: VEGF induced angiogenesis; settings: oral dosing, plasma exposure similar to human clinical trials; cited from earlier work
[6] = system: human cancer xenografts (colorectal carcinomas, glioblastomas, diffuse large B-Cell lymphomas, Waldenstrom's macroglobulinemia, multiple myeloma); settings: single-agent treatment; cited from earlier work
[7] = enzastaurin arm, rs309605/rs309604
[8] = enzastaurin arm, rs309605/rs309604, p-value 5.75×10^−9

SMILES: Cn1cc(C2=C(c3cn(C4CCN(Cc5ccccn5)CC4)c4ccccc34)C(=O)NC2=O)c2ccccc21 [enzastaurin, 3-(1-methyl-1H-indol-3-yl)-4-[1-[1-(pyridin-2-ylmethyl)piperidin-4-yl]-1H-indol-3-yl]-1H-pyrrole-2,5-dione]
- overall survival, AA+AB vs BB genotype in patients without chromaturia (DLBCL patients [1]; 177 enzastaurin treated patients without chromaturia): no significant difference in overall survival
- Event per 1000 person-month (DLBCL patients [1]; AA + AB (rs309605), Chrom): 0.65 per 1000 person-month
- Number of events (OS) (DLBCL patients [1]; AA + AB (rs309605), Chrom, N 82): 3
- Event per 1000 person-month (DLBCL patients [1]; AA + AB (rs309605), Non-Chrom): 3.69 per 1000 person-month
- Number of events (OS) (DLBCL patients [1]; AA + AB (rs309605), Non-Chrom, N 158): 27
- Event per 1000 person-month (DLBCL patients [1]; All types (AA, AB, BB), Chrom): 1.96 per 1000 person-month
- Number of events (OS) (DLBCL patients [1]; All types (AA, AB, BB), Chrom, N 95): 10
- Event per 1000 person-month (DLBCL patients [1]; All types (AA, AB, BB), Non-Chrom): 4.83 per 1000 person-month
- Number of events (OS) (DLBCL patients [1]; All types (AA, AB, BB), Non-Chrom, N 187): 41
- number of patients who survived, AA+AB genotype (DLBCL patients [1]; [7]): 209
- number of patients who survived, BB genotype (DLBCL patients [1]; [7]): 22
- number of patients who had events, AA+AB genotype (DLBCL patients [1]; [8]): 31
- number of patients who had events, BB genotype (DLBCL patients [1]; [8]): 22
- overall survival, AA+AB genotype vs BB genotype (DLBCL patients [1]; enzastaurin treated arm, rs309605 and rs309604): significantly improved survival; also recorded: significant longer overall survival
- overall survival, AA+AB genotype at rs309605 with chromaturia (DLBCL patients [1]; interaction of genotype and chromaturia, p value=0.017): best overall survival
- overall survival / efficacy, enzastaurin arm vs placebo arm (DLBCL patients [1]; overall patient population, N=504 vs N=254, 500 mg daily oral): failed to demonstrate statistically significant efficacy; also recorded: no significant difference
- survival, AA+AB vs BB genotype at rs309605 (DLBCL patients [2]; enzastaurin treatment arm, with R-CHOP): significant better survival
- overall survival, enzastaurin arm vs control arm (DLBCL patients [2]; general patient population, with R-CHOP): no significant difference
- Progression Free (PFS) survival and overall survival, enzastaurin arm (DLBCL patients [2]; patients AA+AB at rs309605 and rs309604 and IPI>2): superior efficacy
- overall survival, AA or AB genotype vs BB genotype at rs309605 (GBM patients): better overall survival
- survival, chromaturia vs without chromaturia (GBM patients): significant improved survival
- IC50 [3]: 40 to 100 nM
- intracellular signaling through the PKC and PI3K/AKT pathways ([4]; clinically relevant concentrations, suppresses phosphorylation of AKT, mTOR, p70S6K, S6, 4EBP1, CREB, GSK3β): blocks intracellular signaling through the PKC and PI3K/AKT pathways
- tumor cell apoptosis ([4]; cultured cancer cells): induces tumor cell apoptosis
- tumor cell proliferation ([4]; cultured cancer cells): inhibits tumor cell proliferation
- VEGF induced angiogenesis [5]: suppresses VEGF induced angiogenesis
- growth of human cancer xenografts [6]: suppresses growth of multiple human cancer xenografts
